Test results from patent EP1760056A1, “A convenient method for the preparation of no-carrier-added O-(2-[18F]fluoroethyl)-L-Tyrosine)” (Institute of Nuclear Energy Research, priority 2005, dated 2007).
Where two headings read alike, the source gives them in different places.

What was measured:
F98 glioma cells [1] = assay: L-[18F]FET uptake by F98 glioma tumor cells; type: cell-based, rat; settings: 10 µCi/well
Protocol: • (1) In five six-well plates, put 1×10^6 F98 glioma cells and 2 ml DMEM (1g glucose/1) into three wells. • (2) Total of five time points (2, 5, 10, 30 minute and 1hour) in this experiment and each time point use one six-well plate. • (3) Predetermined activity of L-[^18F]FET or [^18F]FDG (10 µCi/well) is added into each well during the experiment. […] F98 glioma cells intake L-[^18F]FET rapidly and maximal accumulation will reach after 10 minutes (uptake ratio 0.47%). As cell cannot metabolize L-[^18F]FET, therefore, the rate of L-[^18F]FET transportation by the cells become balance after ten minutes when add L-[^18F]FET; the accumulation of L-[^18F]FET in glioma cells only slightly decrease after 1 hour (uptake ratio 0.41%).

brain tumor (F98 glioma) = assay: PET and microPET imaging of tumor-bearing rat with L-[18F]FET; type: in vivo, rat (Fischer 344); settings: 400 µCi into tail vein
Protocol: • (1) Positron emission tomography (PET) studies of tumor-bearing rat (Fischer 344) with L-[^18F]FET will be carry out after 11~12 days of brain tumor (F98 glioma) implantation. • (2) Producing processes of L-[^18F]FET as described above, and estimates its administrating amount of agent according to the level of radioactivity. • (3) At the very beginning, inject 400 µCi of L-[^18F]FET into tail vein. Temporarily anesthetize rats with ether at time of 0.5, 1, 1.5 and 2 hours. Fix rat on transparent acrylic board and place on PET table after securing stretched limbs on the board. Continuously anesthetize rats with isoflurane gas. Align implant portion of head with PET machine as to assure the fixation of original imaging position. • (4) Adjust background value by blank scan before PET imaging. • (5) Use Ga-68 radioactive source proceed transmission scan for adjust tissue attenuation. • (6) Commence PET and microPET imaging. Perform image processing after reconstruction of acquired image data; the coronal and cross section scans show in Figure 3 and 9. […] In contrast to tumor site, normal tissue have lower radioactivity accumulation of L-[^18F]FET because of lower amino acid requirement.

[2] = Biological distribution of L-[18F]FET in F98 glioma-bearing Fischer 344 rat; settings: in vivo, iv; for tissue uptake at 0.25 h: 15 min after injection via tail vein; for tissue uptake at 0.5 h: 30 min after injection via tail vein; for tissue uptake at 1 h: 60 min after injection via tail vein; for tissue uptake at 2 h: 120 min after injection via tail vein
Protocol: (§1) • (1) Total of twenty Fischer 344 male rats will be assessed in vivo for L-[^18F]FET biological distribution. Use the intersection of bregma and sagittal midlines as original point; so as to implant F98 glioma cells (1 × 10^5cells /10 µl) at the place of 3mm left 5mm upward and 5mm depth. Biological distribution test will be carry out after 11~12 days of brain tumor implantation. • (2) Different volume of radioactive level is injected, injected volume of L-[^18F]FET for each Fischer 344 rat is 200~300µl, that is approximately 200~250 µCi of activity. • (3) Inject L-[^18F]FET via tail vein, and rats are sacrificed at 15, 30, 60, 90 and 120 minutes. • (4) Dissection of rat organ is right after sacrifice. Scissors off chest and abdomen fur alone the line from genital pore upward to jowl. Next, scissors off chest above xiphisternal transversely. Open ribs aside, take blood sample from venous sinus with 0.5 ml syringe. Withdraw the needle after depletion of blood and collect the extracted heart. Collect the lung lobes with forcep. • (5) Scissors off abdominal muscle from genital pore upward to the position below xiphisternal longitudinally. Then, scissors off the opening of upper and lower edges transversely, everts muscle layers to both sides and expose celiac organs. Search for bladder in lower abdomen and sequentially removes stomach, liver, spleen, small intestine, large intestine, kidney, and muscle. • (6) After turn over the rat, scissors off fur of shoulder and removes exposed subcutaneous tumor. Cut scalp upward at lower margin of cranium above foramen magnum and expose cranial bone. Then, cut cervical portion transversely at foramen magnum and expose spinal cord. Inserts foramen magnum with scissors' tip while attach the inner surface of cranium; such that scissors' tip can reach the frontal edge of cranial cavity in order to scissor off the center of cranium. Use scissors to open cranium aside and expose brain tissue. Alone skull base insert scissors deeply to the front edge of cranial cavity in order to remove left-brain, right-brain and brain tumor. • (7) Weight all organ samples; measure radioactivity with γ-counter and convert to %ID/g (% injection dose/g organ) of each organ for estimate the biological distribution of L-[^18F]FET. […] According to reports, L-[^18F]FET can pass through blood brain barrier (BBB) and enter brain by way of L amino acid transporter system. […] Tumor-to-normal brain ratio of L-[^18F]FET at 15, 30, 60, 90 and 120 minutes are 1.54, 1.74, 3.16, 3.14 and 2.34 respectively. Besides brain tumor, rat pancreas also accumulate large amount of L-[^18F]FET (0.98, 1.76, 2.55, 2.28 and 2.24 %ID/g respectively at 15, 30, 60, 90 and 120 minutes); the increasing radioactivity of L-[^18F]FET in pancreas is because of pancreas require large amount of amino acid for synthesis various enzymes and hormones. Some papers reported that patient with tumor observes no significant accumulation of radioactivity in pancreas when use positron emission tomography (PET), the discrepant results were assumed that human and rat have different metabolic pathway. Furthermore, biological distribution study of L-[^18F]FET indicated radioactivity accumulation in tumor cells (expressed by %ID/g) are much higher than other normal organs (left-brain, small intestine, kidney, liver, blood and muscle) except pancreas, this means L-[^18F]FET can be a potential PET agent for substantially different site of tumor. […] Table 1: Determination of accumulated radioactivity (%ID/g) in organs at different time points after injected L-[18F]FET into tumor-bearing rat

F98 glioma cells [3] = assay: as above; settings: in vivo
Protocol: as §1

[4] = Liver, read-out: accumulated radioactivity
[5] = Lung, read-out: accumulated radioactivity
[6] = Muscle, read-out: accumulated radioactivity
[7] = Pancreas, read-out: accumulated radioactivity
[8] = Right brain, read-out: accumulated radioactivity

N[C@@H](Cc1ccc(OCC[18F])cc1)C(=O)O [L-[^18F]FET, O-(2-[^18F]fluoroethyl)-L-Tyrosine]
uptake ratio (F98 glioma cells [1]; after 10 minutes (maximal accumulation)): 0.47%
uptake ratio (F98 glioma cells [1]; after 1 hour): 0.41%
radioactivity accumulation in brain tumor (brain tumor (F98 glioma)): significant radioactivity accumulation in brain tumor
time of maximum uptake in brain tumor (brain tumor (F98 glioma); time after injection): 90 min
tissue uptake at 0.25 h [2, 4]: 0.27 ± 0.06 %ID/g
tissue uptake at 0.5 h [2, 4]: 0.37 ± 0.07 %ID/g
tissue uptake at 1 h [2, 4]: 0.41 ± 0.06 %ID/g
tissue uptake at 1.5 h ([2]; Liver, 90 min after injection via tail vein, read-out: accumulated radioactivity): 0.49 ± 0.01 %ID/g
tissue uptake at 2 h [2, 4]: 0.41 ± 0.09 %ID/g
tissue uptake at 0.25 h [2, 5]: 0.32 ± 0.05 %ID/g
tissue uptake at 0.5 h [2, 5]: 0.43 ± 0.09 %ID/g
tissue uptake at 1 h [2, 5]: 0.43 ± 0.07 %ID/g
tissue uptake at 1.5 h ([2]; Lung, 90 min after injection via tail vein, read-out: accumulated radioactivity): 0.45 ± 0.02 %ID/g
tissue uptake at 2 h [2, 5]: 0.4 ± 0.06 %ID/g
tissue uptake at 0.25 h [2, 6]: 0.19 ± 0.03 %ID/g
tissue uptake at 0.5 h [2, 6]: 0.28 ± 0.01 %ID/g
tissue uptake at 1 h [2, 6]: 0.36 ± 0.04 %ID/g
tissue uptake at 1.5 h ([2]; Muscle, 90 min after injection via tail vein, read-out: accumulated radioactivity): 0.44 ± 0.1 %ID/g
tissue uptake at 2 h [2, 6]: 0.37 ± 0.1 %ID/g
tissue uptake at 0.25 h [2, 7]: 0.98 %ID/g
tissue uptake at 0.5 h [2, 7]: 1.76 %ID/g
tissue uptake at 1 h [2, 7]: 2.55 %ID/g
tissue uptake at 1.5 h ([2]; Pancreas, 90 min after injection via tail vein, read-out: accumulated radioactivity): 2.28 %ID/g
tissue uptake at 2 h [2, 7]: 2.24 %ID/g
tissue uptake at 0.25 h [2, 8]: 0.07 ± 0.02 %ID/g
tissue uptake at 0.5 h [2, 8]: 0.21 ± 0.03 %ID/g
tissue uptake at 1 h [2, 8]: 0.34 ± 0.03 %ID/g
tissue uptake at 1.5 h ([2]; Right brain, 90 min after injection via tail vein, read-out: accumulated radioactivity): 0.48 ± 0.08 %ID/g
tissue uptake at 2 h [2, 8]: 0.34 ± 0.04 %ID/g
tissue uptake at 1.5 h ([2]; maximum accumulation in normal brain tissue): 0.48 %ID/g
Tumor-to-normal brain ratio (F98 glioma cells [3]; 15 min): 1.54
Tumor-to-normal brain ratio (F98 glioma cells [3]; 30 min): 1.74
Tumor-to-normal brain ratio (F98 glioma cells [3]; 60 min): 3.16
Tumor-to-normal brain ratio (F98 glioma cells [3]; 90 min): 3.14
Tumor-to-normal brain ratio (F98 glioma cells [3]; 120 min): 2.34
